The test system of experiment [1] is human dermal fibroblasts (HDF). As to the kind of experiment: Cell adhesion to coated FBG, human dermal fibroblasts. Particulars: coated wells, 45 minutes, crystal violet. Format: cell-based. The method, then:
(§1) (A) The sequence identified to bind integrin ≢vβ3 is shown in white (Yokoyama et al., 2000). Within this sequence two Arginines (shown in black) were identified to be citrullinated. (B) Wells of a 96 well plate were coated with different concentrations of FBG, citrullinated FBG (cFBG), FBG incubated in buffer without Calcium (FBG —Ca^2+), or FBG incubated without PAD (FBG -PAD). As a positive control wells were coated with Fibronectin (FN) (1 ug/ml), and coating with BSA (10 mg/ml) served as negative control. Plates were incubated with human dermal fibroblasts (HDF) or synovial fibroblasts from RA patients (RAF) for 45 minutes and adhesion was measured by determining absorbance of attached cells after staining with crystal violet (0.1%). Data are shown as the mean of at least four independent experiments+s.e.m., *=p<0.05, **=p<0.01.

A further experiment has as its system MyD88. Kind of experiment: Cytokine synthesis in embryonic fibroblasts from MyD88 deficient mice. Format: cell-based. As to the method:
(§2) MEFs express high levels of mRNA of all 9 murine TLRs and are specifically and highly responsive to TLR ligand activation. […] MEFs were isolated from d13 embryos harvested from age-matched, pregnant female wild type, TLR2, TLR4 and null mice (as described in Todaro (1963)). Fibroblasts were cultured at 2×10^4 cells/well in DMEM containing 10% (v/v) FBS and 100 U/ml penicillin/streptomycin in 96-well tissue culture plates for 24 hours before stimulation.
(§3) Cells were incubated for 24 hours at 37° C. with the indicated doses of tenascin-C and recombinant tenascin-C fragments (1.0 μM-1.0 nM). Cells were also stimulated where indicated with LPS (1 ng/ml for human macrophages, 10 ng/ml for human fibroblasts, RA membrane cells and HEKs, 100 ng/ml for MEFS and BMDMs and 10 ng/ml for HEKS), PAM3 (10 ng/ml for human macrophages, human fibroblasts, and HEKs, 100 ng/ml for MEFs and BMDMs), murine IL-1 (5 ng/ml for MEFS) and murine TNF-α (100 ng/ml for MEFS). Unless specifically stated otherwise rough LPS was used for in vitro studies.
(§4) Supernatants were subsequently examined for the presence of the cytokines TNF-α, IL-6, and IL-8 by enzyme-linked immunosorbent assay (ELISA) according to the manufacturer's instructions. Absorbance was read on a spectrophotometric ELISA plate reader (Labsystems Multiscan Biochromic, Vantaa, Finland) and analyzed using the Ascent software program (Thermo Labsystems, Altrincham, UK).

Experiment [2] has as its system synovial membranes from RA patients. Kind of experiment: Cytokine synthesis in RA synovial membrane cells stimulated with FBG. The format is cell-based, human. Conditions: FBG 1.0-0.01 μM, 24 h.
Source text: (§5) RA membrane cells (representing a mixed population of all synovial cell types) were isolated from synovial membranes obtained from patients undergoing joint replacement surgery as previously described (Brennan (1989)). RA synovial fibroblasts were isolated from the mixed population of RA membrane cells as previously described (Brennan (1989)). The study was approved by the local Trust ethics committee (Riverside NHS Research Committee), and waste tissue (synovium after joint replacement surgery) was obtained only after receiving signed informed consent from the patient and anonymyzing the tissue to protect patient identity.
Immediately after isolation, RA membrane cells and macrophages were cultured at 1×10^5 cells/well in RPMI 1640 containing 10% (v/v) FBS and 100 U/ml (Units/ml) penicillin/streptomycin in 96-well tissue culture plates for 24 hours before stimulation. […]
as §4

The subject of another experiment is TLR4. As to the kind of experiment: Cytokine synthesis in embryonic fibroblasts or macrophages from TLR4 deficient mice. Format: cell-based. As to the method:
as §2
(§6) BMDMs were derived by aspirating the femurs of age matched female wild type, TLR2 and TLR4 null mice as described in Butler (1999)) and culturing the cells for 7 days in DMEM, 20% (v/v) FBS, 10 ml/L (v/v) antibiotic-antimycotic solution PSA, 50 μM β-Mercaptoethanol and 10 ng/ml M-CSF. Macrophages were then cultured at 1×10^5 cells/well in DMEM, 20% (v/v) FBS, 10 ml/L (v/v) antibiotic-antimycotic solution PSA, 50 μM β-Mercaptoethanol in 96-well tissue culture plates for 24 hours before stimulation.
as §3, §4

The subject of the next experiment is TLR2 and TLR4 null mice. Kind of experiment: Intra-articular injection of FBG in TLR2 and TLR4 null mice. The format is in vivo. Particulars: 1 μg FBG, 3 days. As to the method:
Representative sections of the knee joint of TLR2 (a) and TLR4 (b) null mice 3 days after intra-articular injection of 1 μg FBG. Sections are stained with hemotoxylin and eosin. Magnification ×10 (n=5 mice per genotype). (c) Quantification of joint inflammation, bone erosion, cartilage surface erosion and chondrocyte death in the knee joints of TLR2 (white bars) and TLR4 (black bars) null mice 3 days after intra-articular injection of 1 μg FBG. Data represent the mean+/−SD (n=5 per genotype).
Homozygous TLR2 and TLR4 deficient mice on a C57BL/6 background (an inbred strain of mice with a black coat) were obtained from B&K Universal (Hull, UK) Hoshino (1999) and Takeuchi (1999). Homozygous MyD88 deficient mice on a C57BL/6 background were provided by the Sanger Institute (Cambridge, UK). Age matched congenic inbred wild type C57B/L6 mice were obtained from Charles River (Margate, UK). For isolation of mouse embryo fibroblasts one female aged 8-10 weeks was mated with two males aged 8-10 weeks. For isolation of bone marrow derived macrophages mice were female and between 10-12 weeks of age at the time of experimentation.
Coronal tissue sections (4 μm) were cut at 7 depths throughout the joint; 80 μm apart and stained with hematoxylin and eosin or Safranin-O to assess joint pathology. Histopathologic changes were scored using the following parameters as described in Van Lent (2006). […]

The subject of experiment [3] is synovial fibroblasts from RA patients (RAF). Kind of experiment: Cell adhesion to coated FBG, RA synovial fibroblasts. Conditions: coated wells, 45 minutes, crystal violet. Format: cell-based, human. As to the method: as §1
Another experiment relates to RA synovial fibroblasts. As to the kind of experiment: Cytokine synthesis in RA synovial fibroblasts stimulated with tenascin-C, FBG or LPS. The format is cell-based, human. Conditions: RA synovial fibroblasts, 24 h.
Source text: as §5
Immediately after isolation, RA membrane cells and macrophages were cultured at 1×10^5 cells/well in RPMI 1640 containing 10% (v/v) FBS and 100 U/ml (Units/ml) penicillin/streptomycin in 96-well tissue culture plates for 24 hours before stimulation. Synovial fibroblasts (used only at either passage number 2 or 3) were cultured at 1×10^4 cells/well in DMEM containing 10% (v/v) FBS and 100 U/ml penicillin/streptomycin in 96-well tissue culture plates for 24 hours before stimulation.
as §3, §4

A further experiment relates to TLR2. As to the kind of experiment: Cytokine synthesis in embryonic fibroblasts or macrophages from TLR2 deficient mice. Format: cell-based. As to the method: as §2, §6, §3, §4

As to “FBG: recombinant fibrinogen-like globe, 227 amino acid globular domain at the C terminal of tenascin-C”, the “adhesion of human dermal fibroblasts (HDF)” value in experiment [1] is on record as “proadhesive”. Moreover, the cytokine synthesis result in the experiment with MyD88 (MEFs from MyD88 deficient mice, 24 h) is reported as “does not stimulate cytokine synthesis”; in the experiment on TLR4 it was “does not stimulate cytokine synthesis”; in the experiment with TLR2 it was “unaffected”. The “responsiveness after re-transfection of wild type MyD88” value with MyD88 (MyD88 deficient MEFs, data not shown) is “restored the responsiveness”. Further, the “synthesis of IL-6, IL-8 and TNF-α” value in experiment [2] is recorded as “further enhanced”. In addition, the joint inflammation result in the experiment with TLR2 and TLR4 null mice (TLR2 null mice) is “able to induce joint inflammation”; with TLR2 and TLR4 null mice (TLR4 null mice) it was “not in TLR4 null mice”. Also, the “adhesion of synovial fibroblasts from RA joints (RAF)” value in experiment [3] is given as “proadhesive”. Moreover, the IL-6 synthesis entry with RA synovial fibroblasts is on record as “to an equal extent to full-length tenascin-C”. In the experiment on RA synovial fibroblasts, the IL-8 synthesis result is listed as “did not induce”.

Source of the values: patent publication US20170009228A1, “BIOLOGICAL MATERIALS AND THERAPEUTIC USES THEREOF” (IMPERIAL INNOVATIONS LIMITED, priority 2014, published 2017).
